In the NIST ThermoML archive (doi:10.1016/j.jct.2013.10.034):
± gives the expanded uncertainty stated by the source.

Assay: excess molar enthalpy (molar enthalpy of mixing); xn = mol fraction of the nth substance listed
Details: 298.15 K, 100 kPa, Liquid, Calvet calorimetry

CCCC[N+]1(C)CCCCC1.N#C[N-]C#N [1-butyl-1-methylpiperidinium dicyanamide] + O
Details | excess molar enthalpy [kcal/mol]
x1 = 0.0639 | -0.0355 ± 0.000574
x1 = 0.0706 | -0.0403 ± 0.000621
x1 = 0.0846 | -0.0509 ± 0.000741
x1 = 0.101 | -0.0634 ± 0.000908
x1 = 0.1186 | -0.0769 ± 0.00105
x1 = 0.1379 | -0.0917 ± 0.00124
x1 = 0.1607 | -0.109 ± 0.00143
x1 = 0.1873 | -0.127 ± 0.00167
x1 = 0.2173 | -0.145 ± 0.00189
x1 = 0.249 | -0.16 ± 0.00208
x1 = 0.2797 | -0.172 ± 0.0022
x1 = 0.3103 | -0.179 ± 0.00229
x1 = 0.3414 | -0.183 ± 0.00234
x1 = 0.371 | -0.185 ± 0.00237
x1 = 0.4062 | -0.184 ± 0.00237
x1 = 0.4376 | -0.181 ± 0.00232
x1 = 0.4741 | -0.176 ± 0.00227
x1 = 0.5173 | -0.167 ± 0.00215
x1 = 0.5418 | -0.162 ± 0.00208
x1 = 0.5687 | -0.155 ± 0.00198
x1 = 0.5984 | -0.146 ± 0.00189
x1 = 0.6314 | -0.136 ± 0.00177
x1 = 0.6683 | -0.124 ± 0.00163
x1 = 0.6951 | -0.115 ± 0.00153
x1 = 0.7241 | -0.105 ± 0.00139
x1 = 0.7557 | -0.0942 ± 0.00127
x1 = 0.7902 | -0.0816 ± 0.0011
x1 = 0.8081 | -0.0749 ± 0.00103
x1 = 0.8268 | -0.0677 ± 0.000932
x1 = 0.8465 | -0.0603 ± 0.00086
x1 = 0.8671 | -0.0529 ± 0.000765
x1 = 0.8887 | -0.0446 ± 0.000669
x1 = 0.9114 | -0.0354 ± 0.00055
x1 = 0.9354 | -0.0256 ± 0.000454
x1 = 0.9606 | -0.0152 ± 0.000335
x1 = 0.9872 | -0.00537 ± 0.000239

CCCC[N+]1(C)CCCC1.N#CN=C=[N-] [1-butyl-1-methylpyrrolidinium dicyanamide] + O
Details | excess molar enthalpy [kcal/mol]
x1 = 0.0674 | -0.0479 ± 0.000717
x1 = 0.0744 | -0.0542 ± 0.000789
x1 = 0.0892 | -0.0681 ± 0.000956
x1 = 0.1064 | -0.0843 ± 0.00115
x1 = 0.1248 | -0.102 ± 0.00136
x1 = 0.145 | -0.121 ± 0.0016
x1 = 0.1688 | -0.142 ± 0.00184
x1 = 0.1964 | -0.164 ± 0.00213
x1 = 0.2275 | -0.185 ± 0.00237
x1 = 0.2604 | -0.203 ± 0.00263
x1 = 0.2921 | -0.215 ± 0.00263
x1 = 0.3236 | -0.223 ± 0.00287
x1 = 0.3554 | -0.227 ± 0.00287
x1 = 0.3857 | -0.228 ± 0.00287
x1 = 0.4217 | -0.225 ± 0.00287
x1 = 0.4535 | -0.22 ± 0.00287
x1 = 0.4906 | -0.212 ± 0.00263
x1 = 0.5342 | -0.2 ± 0.00263
x1 = 0.5589 | -0.192 ± 0.00239
x1 = 0.5859 | -0.183 ± 0.00234
x1 = 0.6157 | -0.172 ± 0.0022
x1 = 0.6486 | -0.159 ± 0.00206
x1 = 0.6853 | -0.144 ± 0.00186
x1 = 0.7119 | -0.132 ± 0.00172
x1 = 0.7406 | -0.119 ± 0.00158
x1 = 0.7718 | -0.106 ± 0.00141
x1 = 0.8057 | -0.0907 ± 0.00122
x1 = 0.8233 | -0.0828 ± 0.00112
x1 = 0.8417 | -0.0752 ± 0.00103
x1 = 0.8609 | -0.0662 ± 0.000932
x1 = 0.881 | -0.0564 ± 0.000813
x1 = 0.9021 | -0.046 ± 0.000693
x1 = 0.9243 | -0.0352 ± 0.00055
x1 = 0.9475 | -0.0238 ± 0.00043
x1 = 0.9719 | -0.0113 ± 0.000287
x1 = 0.9976 | -0.000599 ± 0.000215
